The record followed here is ChEMBL document CHEMBL1136033, “Effects of the incorporation of IBTM beta-turn mimetics into the dipeptoid CCK(1) receptor agonist PD 170292” (Bioorg Med Chem Lett, 2002).

In experiment [1] the target is T1, Cholecystokinin receptor type A (Rattus norvegicus, UniProt P30551).
T1 sequence (P30551 whole entry): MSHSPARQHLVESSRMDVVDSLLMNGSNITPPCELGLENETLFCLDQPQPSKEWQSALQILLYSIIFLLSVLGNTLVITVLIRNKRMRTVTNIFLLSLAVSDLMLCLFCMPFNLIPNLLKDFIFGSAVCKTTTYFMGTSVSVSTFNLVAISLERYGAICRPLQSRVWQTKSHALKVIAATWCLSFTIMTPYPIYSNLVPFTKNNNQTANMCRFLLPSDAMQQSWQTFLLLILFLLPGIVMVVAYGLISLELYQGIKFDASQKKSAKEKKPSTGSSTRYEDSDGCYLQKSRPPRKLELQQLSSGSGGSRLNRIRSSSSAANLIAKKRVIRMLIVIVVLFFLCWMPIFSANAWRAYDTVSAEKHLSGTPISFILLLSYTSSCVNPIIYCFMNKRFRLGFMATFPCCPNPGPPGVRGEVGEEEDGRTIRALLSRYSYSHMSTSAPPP
The experiment can be described thus: Inhibition of [3H]propionyl-CCK-8 specific binding to rat pancreatic Cholecystokinin type A receptor.

Experiment [2] concerns the target T2, Gastrin/cholecystokinin type B receptor (Rattus norvegicus, UniProt P30553).
T2 sequence (P30553 whole entry): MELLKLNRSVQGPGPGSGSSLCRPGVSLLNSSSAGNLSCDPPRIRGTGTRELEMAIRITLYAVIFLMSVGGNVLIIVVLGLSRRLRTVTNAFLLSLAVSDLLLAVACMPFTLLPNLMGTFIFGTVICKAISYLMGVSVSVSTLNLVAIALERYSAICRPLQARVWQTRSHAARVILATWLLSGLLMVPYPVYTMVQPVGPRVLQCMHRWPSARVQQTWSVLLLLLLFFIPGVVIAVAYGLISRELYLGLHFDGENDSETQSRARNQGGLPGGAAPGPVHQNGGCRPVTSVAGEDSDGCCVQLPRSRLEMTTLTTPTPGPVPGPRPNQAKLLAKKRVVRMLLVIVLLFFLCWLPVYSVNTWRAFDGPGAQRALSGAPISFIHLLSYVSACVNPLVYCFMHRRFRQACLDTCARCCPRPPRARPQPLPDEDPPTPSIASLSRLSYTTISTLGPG
The experiment can be described thus: Inhibition of [3H]propionyl-CCK-8 specific binding to rat cerebral cortex membranes Cholecystokinin type B receptor. The class given is cell membranes, Membrane.

Experiment [3] in a line: The compound was tested to antagonize the CCK-8 induced amylase secretion from pancreatic acini. The class given is functional.

Structures are written as SMILES. Where only a bound is given, the exact number is not on record here.

For the compound `Cc1ccccc1NC(=O)NCCCC[C@@H](CC(=O)O)NC(=O)[C@H]1Cc2c([nH]c3ccccc23)[C@@H]2C[C@@H](NC(=O)OCc3ccccc3)C(=O)N12`, the figures for the IC50 in experiment [1], in experiment [2] and in experiment [3] were 0.0082 µM, 5.8 µM and 0.196 µM, respectively. Consider `O=C(N[C@H]1C[C@@H]2c3[nH]c4ccccc4c3C[C@@H](C(=O)N[C@@H](Cc3ccccc3)C(=O)O)N2C1=O)OCc1ccccc1`, for which the IC50 in experiment [2] was over 10 µM. Same read-out and setting: under `Cc1ccccc1NC(=O)NCCCC[C@@H](CC(=O)O)NC(=O)[C@@](C)(Cc1c[nH]c2ccccc12)NC(=O)OC1C2CC3CC(C2)CC1C3` (some centres not stated) [PD-170292] stands 0.0067 µM. With `Cc1ccccc1NC(=O)NCCCC[C@@H](CC(=O)O)NC(=O)[C@@H]1Cc2c([nH]c3ccccc23)[C@H]2C[C@H](NC(=O)OCc3ccccc3)C(=O)N21`, the figures for the IC50 in experiment [1] and in experiment [2] were 0.324 µM and over 10 µM, respectively.
